Series [1] has as its system uni-nephrectomized fawn-hooded hypertensive (FHH) rats. The settings on record: late disease model. Here is the method:
Male FHH rats (In-house colony established from animals obtained from Charles River Laboratories, Wilmington, MA) were housed at a certified animal facility at 22°C and a 12∶12 h light/dark cycle. […] All surgeries were performed under isoflurane anesthesia (5% induction, 2% maintenance), at 37°C, and perioperative buprenorphine.
Following anesthesia, an incision was made in the left flank; the kidney was exposed and excised after ligation of the pedicle. […] Under anesthesia, a mini-pump was placed in a subcutaneous pocket. […] Pumps were replaced once during the treatment period. For the early disease model, five groups of rats were examined. […] For the late disease model, eight groups of rats were examined. […] The dosages of the Ang peptides were selected based on previous studies where Ang-(1-7) was similarly administered using implanted osmotic mini-pumps, [16], [17], [26]. […] Systemic blood pressure was measured by tail-cuff sphygmomanometer (Natume, Japan). Animals were placed on metabolic cages for urine collection at pre-specified time points. Urinary protein excretion was measured by the method of Lowry. Urinary sodium concentration was measured by ion-selective electrodes. At sacrifice, kidneys were harvested for histological analysis and measurement of Ang peptide concentration.
Upon harvesting, kidneys were cleared of blood by transcardiac perfusion of iced-cold phosphate buffered saline, excised and fixed in 4% paraformaldehyde, embedded in paraffin and processed for microscopic examination. Kidney sections (2-µm) were stained with hematoxylin-eosin (H&E), Jones silver and Periodic Acid Schiff (PAS). Slides were reviewed by an experienced renal pathologist (S.S) in a blinded fashion. Index of glomerulosclerosis was evaluated by a semiquantitative score based on the percentage of the glomerular tuft occupied by sclerotic lesions (0: no lesions, 1: lesions affecting less than 25% of the glomerulus, 2-3-4: lesions affecting 25–50%, 50–75% and 75–100% of the glomerulus, respectively). Tubular injury was rated based on presence of tubular atrophy, microcystic tubular dilation and interstitial fibrosis, from 0 to 3 (0: none; 1: mild; 2: moderate; 3: severe).
Blood pressure data were analyzed by repeated measures ANOVA. Differences within groups were analyzed using paired t-tests adjusted with Bonferroni modification. Differences between group means at each time point were tested using one-way ANOVA followed by Tukey-Kramer post-hoc test. Urinary protein excretions were log10 transformed and tested using a two-way ANOVA for repeated measures followed by Scheffe post hoc test for differences between the groups. Untransformed 24-hour urinary protein excretions at each time point were then tested using Kruskal-Wallis test. If a significant main effect was detected then differences between groups were tested using the Mann-Whitney U test with the probability adjusted using the Bonferroni modification. Urine sodium was also assessed by two-way ANOVA for repeated measures and pairwise multiple comparisons were made using the Holm-Sidak method. Multiple comparisons of Ang peptide levels were made using ANOVA when data were normally distributed and with log10 transformation when non-normally distributed. Post-hoc pairwise comparisons were made using the Holm-Sidak method. […] For Ang peptide measurements by LC/MS/MS, only values above the LLOQ were utilized for statistical comparisons.

For series [2], the target named is T1, AT1a receptor (Rattus norvegicus, UniProt P25095).
T1 construct: expressed in transfected cells
T1 sequence (P25095 1-359): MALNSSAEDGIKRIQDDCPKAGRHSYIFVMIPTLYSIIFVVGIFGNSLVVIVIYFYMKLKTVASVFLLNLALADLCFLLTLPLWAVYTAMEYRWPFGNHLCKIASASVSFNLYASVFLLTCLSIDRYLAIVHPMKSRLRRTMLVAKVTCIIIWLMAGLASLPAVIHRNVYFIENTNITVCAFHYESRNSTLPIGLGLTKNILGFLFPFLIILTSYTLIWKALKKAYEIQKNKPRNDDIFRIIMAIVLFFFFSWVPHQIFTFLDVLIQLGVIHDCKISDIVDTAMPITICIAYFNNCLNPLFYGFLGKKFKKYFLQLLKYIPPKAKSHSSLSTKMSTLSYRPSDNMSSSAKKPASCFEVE
The experiment in a line: Ang peptide radioligand binding assay, displacement of [125I]-Ang-II (AT1R/HEK). The settings on record: competition with [125I]-Ang-II, HEK-293 cells stably expressing AT1a receptor, 90 min on ice, log-logit analysis; average of n studies. Here is the method: (§1) HEK-293 cells stably expressing AT1a receptor were maintained and characterized as previously described. HEK-293 cells expressing AT2 receptors were transfected with pcDNA3.1 plasmid containing human AT2 receptor DNA using Lipofectamine 2000 at 1 µg DNA/well of a six-well plate according to manufacturer's protocol (Invitrogen, Carlsbad, CA). Transfected cells were maintained in Minimal Essential Medium (MEM) containing 10% fetal bovine serum and 1% antibiotic/fungizone/antimycotic with addition of geneticin (400 µg/ml) for stable transfectants. Confluent monolayers cells were deprived of serum (0.1% bovine serum albumin) for 2–24 hours before assay. […] After 90 min of incubation on ice, cells were gently washed 3 times with ice cold 0.9% sodium chloride followed by solubilization of the cell monolayer with 0.1 N NaOH/0.1% SDS. The solubilized sample was placed into a gamma counter for determination of cell-associated radioactivity. Log-logit analysis of the obtained competition curves was performed for determination of IC50 values.

Series [3] addresses T2, human AT2 receptor (Homo sapiens, UniProt P50052).
T2 construct: expressed in transfected cells
T2 sequence (P50052 1-363): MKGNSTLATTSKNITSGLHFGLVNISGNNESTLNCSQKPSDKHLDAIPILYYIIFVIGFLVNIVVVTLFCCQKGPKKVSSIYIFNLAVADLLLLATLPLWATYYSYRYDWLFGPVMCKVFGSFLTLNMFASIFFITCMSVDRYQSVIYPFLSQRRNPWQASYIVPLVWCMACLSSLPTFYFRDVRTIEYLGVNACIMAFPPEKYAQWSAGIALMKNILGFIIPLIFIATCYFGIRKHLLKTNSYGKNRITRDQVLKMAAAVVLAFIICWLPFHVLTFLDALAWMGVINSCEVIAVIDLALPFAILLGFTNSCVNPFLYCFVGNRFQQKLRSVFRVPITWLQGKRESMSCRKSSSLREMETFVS
As to the kind of experiment: Ang peptide radioligand binding assay, displacement of [125I]-Ang-II (AT2R/HEK). Conditions: competition with [125I]-Ang-II, HEK-293 cells stably transfected with human AT2 receptor, 90 min on ice, log-logit analysis; average of n studies. The protocol:
as §1

pIC50: −log10 of the molar value. Where no end group is shown, it is not given here.

Consider RVYIHPFHL [Ang-(2-10)], for which the “demise of treated animals” value in series [1] (400 ng/kg/min iv) is reported as 7 out of the 9. In series [1] (high-dose 400 ng/kg/min iv, 12 weeks, n=9 treated), the “number of rats that survived until the end of the study” value was found to be 2. In addition, the results for the pIC50 in series [2] and in series [3] were 7.32 and 8.18, respectively.
